Measured values published in patent publication US20200270309A1, “MALEIMIDE GROUP-MODIFIED ANGIOGENESIS INHIBITOR HM-1 AND USE THEREOF” (NANJING ANJI BIOLOGICAL TECHNOLOGY CO., LTD, priority 2017, published 2020).
Peptide text beside a SMILES is read from it. * marks the point of attachment. X66 = O=C1C=CC(=O)N1c1cccc(CCCCCCCC(=O)*)c1; X54 = O=C1C=CC(=O)N1c1cccc(CCCCCCC(=O)*)c1; X49 = O=C1C=CC(=O)N1c1ccccc1CCCCCC(=O)*

Legend:
[1] = tested on: adjuvant arthritis; assay: Rat adjuvant arthritis (AA) animal model; assay type: in vivo, SD rats; conditions: 4.0 mg/kg; for Clinical score: intravenous in the tail once every five days from day 10, four paws scored 0-4, max 16, mean±SD; for Joint swelling degree / Left and right paw swelling degree: intravenous in the tail once every five days from day 10, mean±SD
[2] = tested on: HUVECs; assay: Transwell migration inhibition on HUVECs; assay type: cell-based, human; conditions: for Inhibition rate (%): HUVEC migration vs blank control; for Cell migration number (Mean ± SD): HUVECs, transwell, 24 h
[3] = tested on: collagen-induced arthritis; assay: Mouse collagen-induced arthritis (CIA) animal model; assay type: in vivo; conditions: DBA/1 mice CIA model, dose 4.0 mg/kg, subcutaneous from day 30, n=10; for Clinical score: highest score 16
[4] = tested on: corneal neovascularization; assay: Corneal neovascularization induced by alkali burn in BALB/c mice; assay type: in vivo; set-up: Inhibition rate (corneal neovascularization): concentration or dose not given beside the values; conditions: day 14 after alkali burn, vitreous injection once a day for 1 week
[5] = tested on: retinal vascular endothelial nuclei; assay: Neovascularization in a rat model of premature retinopathy; assay type: in vivo, rats; conditions: for Nuclei count (retinal vascular endothelial nuclei, average per section per eyeball): dose 0.05 μM in the vitreous chamber from day 7 of modeling for one week, counted on day 14, oxygen-induced neonatal rats
Summary of the method: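 Newborn rats kept 7 d in chamber alternating 80% and 10% O2 every 24 h (23 °C), then room air. Intravitreal injection of test agents on day 7, saline for model and control; eyes taken day 14, HE-stained 4 μm sections. Endothelial nuclei breaching retinal inner limiting membrane counted, averaged per section per eye (10 sections).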

[6] = tested on: splenic lymphocytes; assay: Proliferation of splenic lymphocytes in mice (ConA, MTT); assay type: cell-based; conditions: ConA-stimulated mouse splenic lymphocytes, 48 h
Summary of the method: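 Proliferation read as OD 570 nm after 4 h MTT and DMSO solubilisation, five parallel wells. Before that, ConA-stimulated splenic lymphocytes from mice, 5×10^6 cells/mL in 10% calf serum RPMI 1640, were cultured 48 h at 37° C. with different peptide concentrations; controls were blank, ConA alone and dexamethasone.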

[7] = tested on: IL-1β production by mouse peritoneal macrophages; assay: IL-1β production by mouse peritoneal macrophages (ELISA); assay type: cell-based; conditions: for Inhibition rate: IL-1β production, vs model group; for IL-1β: mouse peritoneal macrophages, 48 h, ELISA
Summary of the method: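 Peptides tested at three concentration levels on adherent peritoneal macrophages harvested from mice 3 days after i.p. 6% starch broth, plated at 2×10^6 cells/mL. After 48 h culture with Dex as reference, IL-1β in supernatants was quantified.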

## C[C@H](NC(=O)CNC(=O)[C@H](CCCNC(=N)N)NC(=O)CCCCCc1ccccc1N1C(=O)C=CC1=O)C(=O)N[C@@H](CC(=O)O)C(=O)N[C@@H](CCCNC(=N)N)C(=O)N[C@@H](C)C(=O)NCC(=O)NCC(=O)NCC(=O)NCC(=O)N[C@@H](CCCNC(=N)N)C(=O)NCC(=O)N[C@@H](CC(=O)O)C(=O)O [X17] (X49-RGADRAGGGGRGD-OH)
[1]
  Clinical score: 5.82 ± 1.05
  Joint swelling degree: 0.78 ± 0.15 mm
  Left and right paw swelling degree: 3.84 ± 0.88 mm
[2]; dose 0.05 μM
  Inhibition rate (%): 48.96%
  Cell migration number (Mean ± SD): 547.07 ± 50.72
[2]; dose 0.1 μM
  Inhibition rate (%): 54.89%
  Cell migration number (Mean ± SD): 483.55 ± 66.46
[2]; dose 0.2 μM
  Inhibition rate (%): 57.52%
  Cell migration number (Mean ± SD): 455.35 ± 68.52
[3]
  Joint swelling degree (mm): 0.79 ± 0.12 mm
  Left and right paw swelling degree (mm): 0.78 ± 0.17 mm
  Clinical score: 9.13 ± 1.31
[4]
  Inhibition rate (corneal neovascularization): 48.05%
  MVD (corneal microvessel density): 34.93 ± 4.725
[5]
  Nuclei count (retinal vascular endothelial nuclei, average per section per eyeball): 7.012 ± 1.321
[5]; dose 0.05 μm, vitreous injection
  retinal vascular endothelial nuclei count: 7.012±1.321
[6]; polypeptide dose 0.05 μM
  A570 nm/A630 nm: 0.6219 ± 0.0629
  Inhibition rate (%): 7.92%
[6]; polypeptide dose 0.1 μM
  A570 nm/A630 nm: 0.5484 ± 0.1109
  Inhibition rate (%): 18.80%
[6]; polypeptide dose 0.2 μM
  A570 nm/A630 nm: 0.5025 ± 0.0957
  Inhibition rate (%): 25.60%
[7]; dose 0.05 μM
  Inhibition rate: 16.02%
  IL-1β: 790.35 ± 11.07 pg/mL
[7]; dose 0.1 μM
  Inhibition rate: 43.57%
  IL-1β: 531.11 ± 17.61 pg/mL
[7]; dose 0.2 μM
  Inhibition rate: 43.90%
  IL-1β: 528.00 ± 10.53 pg/mL

## C[C@H](NC(=O)CNC(=O)[C@H](CCCNC(=N)N)NC(=O)CCCCCCCc1cccc(N2C(=O)C=CC2=O)c1)C(=O)N[C@@H](CC(=O)O)C(=O)N[C@@H](CCCNC(=N)N)C(=O)N[C@@H](C)C(=O)NCC(=O)NCC(=O)NCC(=O)NCC(=O)N[C@@H](CCCNC(=N)N)C(=O)NCC(=O)N[C@@H](CC(=O)O)C(=O)O [X31] (X66-RGADRAGGGGRGD-OH)
[1]
  Clinical score: 5.74 ± 1.12
  Joint swelling degree: 0.84 ± 0.12 mm
  Left and right paw swelling degree: 3.72 ± 0.98 mm
[2]; dose 0.05 μM
  Inhibition rate (%): 40.18%
  Cell migration number (Mean ± SD): 641.17 ± 61.85
[2]; dose 0.1 μM
  Inhibition rate (%): 46.67%
  Cell migration number (Mean ± SD): 571.62 ± 42.83
[2]; dose 0.2 μM
  Inhibition rate (%): 55.21%
  Cell migration number (Mean ± SD): 480.05 ± 67.72
[3]
  Joint swelling degree (mm): 0.78 ± 0.15 mm
  Left and right paw swelling degree (mm): 0.77 ± 0.15 mm
  Clinical score: 8.75 ± 1.38
[4]
  Inhibition rate (corneal neovascularization): 45.42%
  MVD (corneal microvessel density): 36.70 ± 5.505
[5]
  Nuclei count (retinal vascular endothelial nuclei, average per section per eyeball): 7.228 ± 3.184
[6]; polypeptide dose 0.05 μM
  A570 nm/A630 nm: 0.6142 ± 0.0512
  Inhibition rate (%): 9.06%
[6]; polypeptide dose 0.1 μM
  A570 nm/A630 nm: 0.6134 ± 0.1148
  Inhibition rate (%): 9.18%
[6]; polypeptide dose 0.2 μM
  A570 nm/A630 nm: 0.5450 ± 0.0838
  Inhibition rate (%): 19.31%
[7]; dose 0.05 μM
  Inhibition rate: 15.28%
  IL-1β: 797.34 ± 10.46 pg/mL
[7]; dose 0.1 μM
  Inhibition rate: 18.74%
  IL-1β: 764.81 ± 19.08 pg/mL
[7]; dose 0.2 μM
  Inhibition rate: 23.12%
  IL-1β: 723.57 ± 18.58 pg/mL

## C[C@H](NC(=O)CNC(=O)[C@H](CCCNC(=N)N)NC(=O)CCCCCCc1cccc(N2C(=O)C=CC2=O)c1)C(=O)N[C@@H](CC(=O)O)C(=O)N[C@@H](CCCNC(=N)N)C(=O)N[C@@H](C)C(=O)NCC(=O)NCC(=O)NCC(=O)NCC(=O)N[C@@H](CCCNC(=N)N)C(=O)NCC(=O)N[C@@H](CC(=O)O)C(=O)O [X30] (X54-RGADRAGGGGRGD-OH)
[1]
  Clinical score: 5.73 ± 1.05
  Joint swelling degree: 0.82 ± 0.12 mm
  Left and right paw swelling degree: 3.76 ± 0.64 mm
[2]; dose 0.05 μM
  Inhibition rate (%): 41.12%
  Cell migration number (Mean ± SD): 631.10 ± 64.04
[2]; dose 0.1 μM
  Inhibition rate (%): 53.55%
  Cell migration number (Mean ± SD): 497.88 ± 65.38
[2]; dose 0.2 μM
  Inhibition rate (%): 53.58%
  Cell migration number (Mean ± SD): 497.56 ± 68.24
[3]
  Joint swelling degree (mm): 0.83 ± 0.16 mm
  Left and right paw swelling degree (mm): 0.79 ± 0.16 mm
  Clinical score: 8.73 ± 1.29
[4]
  Inhibition rate (corneal neovascularization): 47.13%
  MVD (corneal microvessel density): 35.55 ± 5.717
[5]
  Nuclei count (retinal vascular endothelial nuclei, average per section per eyeball): 8.256 ± 3.403
[6]; polypeptide dose 0.05 μM
  A570 nm/A630 nm: 0.5725 ± 0.0671
  Inhibition rate (%): 15.24%
[6]; polypeptide dose 0.1 μM
  A570 nm/A630 nm: 0.4914 ± 0.0652
  Inhibition rate (%): 27.24%
[6]; polypeptide dose 0.2 μM
  A570 nm/A630 nm: 0.4759 ± 0.0702
  Inhibition rate (%): 29.54%
[7]; dose 0.05 μM
  Inhibition rate: 28.30%
  IL-1β: 674.82 ± 10.45 pg/mL
[7]; dose 0.1 μM
  Inhibition rate: 33.96%
  IL-1β: 621.53 ± 19.69 pg/mL
[7]; dose 0.2 μM
  Inhibition rate: 37.33%
  IL-1β: 589.79 ± 19.66 pg/mL
